Experimental data reported in patent publication US7138361B2, “Herbicidal heterocycles” (E. I. du Pont de Nemours and Company, priority 2000, dated 2006).

Tests used:
Type in all cases: in vivo
[1] = test system: Surinam grass (Brachiaria decumbens); test: Test B postemergence; conditions: 13 to 15 days
Procedure, shortened: (§1)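 Visual injury scores, 0 = no effect to 100 = complete control, assigned against controls after 13 to 15 days in the greenhouse. Compounds formulated in non-phytotoxic solvent plus surfactant and applied to soil after planting (pre) or onto foliage of 1- to 4-leaf plants (post).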

[2] = test system: barnyardgrass (Echinochloa crus-galli); test: Test B postemergence; conditions: 13 to 15 days
Procedure, shortened: as §1

[3] = test system: blackgrass (Alopecurus myosuroides); test: Test B postemergence; conditions: 13 to 15 days
Procedure, shortened: as §1

corn (Zea mays) [4] = test: Test B postemergence; conditions: 13 to 15 days
Procedure, shortened: as §1

[5] = test system: giant foxtail (Setaria faberii); test: Test B postemergence; conditions: 13 to 15 days
Procedure, shortened: as §1

[6] = test system: morning glory (Ipomoea hederacea); test: Test B postemergence; conditions: 13 to 15 days
Procedure, shortened: as §1

[7] = test system: pigweed (Amaranthus retroflexus); test: Test B postemergence; conditions: 13 to 15 days
Procedure, shortened: as §1

[8] = test system: velvetleaf (Abutilon theophrasti); test: Test B postemergence; conditions: 13 to 15 days
Procedure, shortened: as §1

[9] = test system: wheat (Triticum aestivum); test: Test B postemergence; conditions: 13 to 15 days
Procedure, shortened: as §1

[10] = test system: Surinam grass (Brachiaria decumbens); test: Test B preemergence
Procedure, shortened: as §1

[11] = test system: barnyardgrass (Echinochloa crus-galli); test: Test B preemergence
Procedure, shortened: as §1

[12] = test system: cocklebur (Xanthium strumarium); test: Test B preemergence
Procedure, shortened: as §1

corn (Zea mays) [13] = test: Test B preemergence
Procedure, shortened: as §1

[14] = test system: crabgrass (Digitaria sanguinalis); test: Test B preemergence
Procedure, shortened: as §1

[15] = test system: giant foxtail (Setaria faberii); test: Test B preemergence
Procedure, shortened: as §1

[16] = test system: lambsquarters (Chenopodium album); test: Test B preemergence
Procedure, shortened: as §1

[17] = test system: morning glory (Ipomoea hederacea); test: Test B preemergence
Procedure, shortened: as §1

[18] = test system: pigweed (Amaranthus retroflexus); test: Test B preemergence
Procedure, shortened: as §1

rice (Oryza saliva) [19] = test: Test B preemergence
Procedure, shortened: as §1

[20] = test system: velvetleaf (Abutilon theophrasti); test: Test B preemergence
Procedure, shortened: as §1

[21] = test system: barnyardgrass (Echinochloa crus-galli); test: Test C flooded paddy test; conditions: for Barnyardgrass plant response rating: Flooded Paddy, scale 0 to 100, 0 no effect, 100 complete control; for Plant response rating, Barnyardgrass: flooded paddy test, scale 0 to 100 (0 no effect, 100 complete control)
Procedure, shortened: (§2)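 Visual injury score, 0 (no effect) to 100 (complete control), relative to controls. Paddy plants treated at 2-leaf stage; greenhouse hold 12–14 d before rating.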

[22] = test system: duck salad (Heteranthera limosa); test: Test C flooded paddy test; conditions: for Ducksalad plant response rating: Flooded Paddy, scale 0 to 100, 0 no effect, 100 complete control; for Plant response rating, Ducksalad: flooded paddy test, scale 0 to 100 (0 no effect, 100 complete control)
Procedure, shortened: as §2

rice (Oryza saliva) [23] = test: Test C flooded paddy test; conditions: for Rice plant response rating: Flooded Paddy, scale 0 to 100, 0 no effect, 100 complete control; for Plant response rating, Rice: flooded paddy test, scale 0 to 100 (0 no effect, 100 complete control)
Procedure, shortened: as §2

[24] = test system: smallflower flatsedge (Cyperus difformis); test: Test C flooded paddy test; conditions: for Flatsedge plant response rating: Flooded Paddy, scale 0 to 100, 0 no effect, 100 complete control; for Plant response rating, Flatsedge: flooded paddy test, scale 0 to 100 (0 no effect, 100 complete control)
Procedure, shortened: as §2

Nightshade = test: Test C preemergence; conditions: visual evaluation after 12 to 14 days
Sunflower = test: Test C preemergence; conditions: scale 0 to 100, 0 no effect, 100 complete control
[25] = Rate 125 g/ha, scale 0 (no effect) to 100 (complete control)
[26] = Rate 500 g/ha, scale 0 to 100, 0 is no effect, 100 is complete control
[27] = Preemergence, Rate 500 g/ha, scale 0 to 100, 0 no effect, 100 complete control
[28] = preemergence, Rate 125 g/ha, scale of 0 to 100 where 0 is no effect and 100 is complete control, 13 to 15 days
[29] = preemergence, Rate 125 g/ha, scale 0 to 100, 0 no effect, 100 complete control

COc1cc(N2CCC(n3ccc(C(C)C)n3)C2=O)ccc1C (centres unmarked) [Compound 85]
70: Plant response rating, Sunflower (Sunflower; Rate 250 g/ha)
50: Plant response rating, Barnyardgrass [2, 26] | Plant response rating, Velvetleaf [8, 26]
80: Plant response rating, Morningglory [6, 26] | Plant response rating, Foxtail, Giant [15, 28] | Rice plant response rating (rice (Oryza saliva) [23]; Rate 250 g/ha)
20: Plant response rating, Blackgrass [3, 26] | Plant response rating, Foxtail, Giant [5, 26] | Plant response rating, Velvetleaf [8, 25] | Plant response rating, Corn (corn (Zea mays) [13]; [28]) | Plant response rating, Velvetleaf [20, 28]
0: Plant response rating, Surinam grass [1, 25] | Plant response rating, Surinam grass [1, 26] | Plant response rating, Barnyardgrass [2, 25] | Plant response rating, Blackgrass [3, 25] | Plant response rating, Corn (corn (Zea mays) [4]; [25]) | Plant response rating, Foxtail, Giant [5, 25] | Plant response rating, Morningglory [6, 25] | Plant response rating, Wheat [9, 25] | Plant response rating, Wheat [9, 26]
40: Plant response rating, Cocklebur [12, 28] | Plant response rating, Barnyardgrass ([21]; Rate 62 g/ha)
60: Plant response rating, Pigweed [7, 25] | Plant response rating, Surinam grass [10, 28] | Plant response rating, Rice (rice (Oryza saliva) [23]; Rate 125 g/ha)
100: Plant response rating, Barnyardgrass [11, 27] | Plant response rating, Barnyardgrass [11, 28] | Plant response rating, Crabgrass [14, 27] | Plant response rating, Crabgrass [14, 28] | Plant response rating, Foxtail, Giant [15, 27] | Plant response rating, Lambsquarters [16, 27] | Plant response rating, Lambsquarters [16, 28] | Plant response rating, Morningglory [17, 27] | Plant response rating, Pigweed [18, 27] | Plant response rating, Pigweed [18, 28] | Plant response rating, Rice (rice (Oryza saliva) [19]; [27]) | Plant response rating, Rice (rice (Oryza saliva) [19]; [28]) | Plant response rating, Velvetleaf [20, 27] | Barnyardgrass plant response rating ([21]; Rate 250 g/ha) | Barnyardgrass plant response rating ([21]; Rate 500 g/ha) | Ducksalad plant response rating ([22]; Rate 250 g/ha) | Ducksalad plant response rating ([22]; Rate 500 g/ha) | Plant response rating, Ducksalad ([22]; Rate 125 g/ha) | Rice plant response rating (rice (Oryza saliva) [23]; Rate 500 g/ha) | Flatsedge plant response rating ([24]; Rate 250 g/ha) | Flatsedge plant response rating ([24]; Rate 500 g/ha) | Plant response rating, Flatsedge ([24]; Rate 125 g/ha) | Plant response rating (0 to 100), Nightshade (Nightshade; Rate 500 g/ha)
30: Plant response rating, Corn (corn (Zea mays) [4]; [26]) | Plant response rating, Corn (corn (Zea mays) [13]; [27]) | Plant response rating, Rice (rice (Oryza saliva) [23]; Rate 62 g/ha)
90: Plant response rating, Pigweed [7, 26] | Plant response rating, Surinam grass [10, 27] | Plant response rating, Cocklebur [12, 27] | Plant response rating, Morningglory [17, 28] | Plant response rating, Barnyardgrass ([21]; Rate 125 g/ha) | Plant response rating, Ducksalad ([22]; Rate 62 g/ha) | Plant response rating, Flatsedge ([24]; Rate 62 g/ha)

CC(C)c1ccn(C2OCN(c3cccc(C(F)(F)F)c3)C2=O)n1 (centres unmarked) [Compound 27]
90: Plant response rating, Crabgrass [14, 27] | Plant response rating, Foxtail, Giant [15, 27] | Ducksalad plant response rating ([22]; Rate 500 g/ha) | Plant response rating, Flatsedge ([24]; Rate 62 g/ha) | Plant response rating, Flatsedge ([24]; Rate 125 g/ha)
60: Plant response rating, Barnyardgrass [2, 26] | Plant response rating, Pigweed [7, 26] | Barnyardgrass plant response rating ([21]; Rate 250 g/ha) | Plant response rating, Barnyardgrass ([21]; Rate 125 g/ha)
50: Plant response rating, Morningglory [6, 26]
10: Plant response rating, Corn (corn (Zea mays) [4]; [26])
70: Barnyardgrass plant response rating ([21]; Rate 500 g/ha) | Rice plant response rating (rice (Oryza saliva) [23]; Rate 500 g/ha)
100: Plant response rating, Barnyardgrass [11, 27] | Plant response rating, Lambsquarters [16, 27] | Plant response rating, Lambsquarters [16, 29] | Plant response rating, Pigweed [18, 27] | Plant response rating, Pigweed [18, 29] | Flatsedge plant response rating ([24]; Rate 250 g/ha) | Flatsedge plant response rating ([24]; Rate 500 g/ha)
40: Plant response rating, Pigweed [7, 25] | Plant response rating, Rice (rice (Oryza saliva) [19]; [27]) | Rice plant response rating (rice (Oryza saliva) [23]; Rate 250 g/ha) | Plant response rating, Rice (rice (Oryza saliva) [23]; Rate 125 g/ha)
20: Plant response rating, Surinam grass [1, 26] | Plant response rating, Barnyardgrass [2, 25] | Plant response rating, Barnyardgrass ([21]; Rate 62 g/ha) | Plant response rating, Sunflower (Sunflower; Rate 125 g/ha)
30: Plant response rating, Foxtail, Giant [5, 26] | Plant response rating, Barnyardgrass [11, 29]
0: Plant response rating, Surinam grass [1, 25] | Plant response rating, Blackgrass [3, 25] | Plant response rating, Blackgrass [3, 26] | Plant response rating, Corn (corn (Zea mays) [4]; [25]) | Plant response rating, Foxtail, Giant [5, 25] | Plant response rating, Morningglory [6, 25] | Plant response rating, Velvetleaf [8, 25] | Plant response rating, Velvetleaf [8, 26] | Plant response rating, Wheat [9, 25] | Plant response rating, Wheat [9, 26] | Plant response rating, Surinam grass [10, 27] | Plant response rating, Surinam grass [10, 29] | Plant response rating, Cocklebur [12, 27] | Plant response rating, Cocklebur [12, 29] | Plant response rating, Corn (corn (Zea mays) [13]; [27]) | Plant response rating, Corn (corn (Zea mays) [13]; [29]) | Plant response rating, Crabgrass [14, 29] | Plant response rating, Foxtail, Giant [15, 29] | Plant response rating, Morningglory [17, 27] | Plant response rating, Morningglory [17, 29] | Plant response rating, Rice (rice (Oryza saliva) [19]; [29]) | Plant response rating, Velvetleaf [20, 27] | Plant response rating, Velvetleaf [20, 29] | Ducksalad plant response rating ([22]; Rate 250 g/ha) | Plant response rating, Ducksalad ([22]; Rate 62 g/ha) | Plant response rating, Ducksalad ([22]; Rate 125 g/ha) | Plant response rating, Rice (rice (Oryza saliva) [23]; Rate 62 g/ha) | Plant response rating (0 to 100), Nightshade (Nightshade; Rate 250 g/ha)

CCCC(C)c1ccn(C2CCN(c3cccc(C(F)(F)F)c3)C2=O)n1 (centres unmarked) [Compound 100]
20: Plant response rating, Surinam grass [10, 27] | Plant response rating, Corn (corn (Zea mays) [13]; [27]) | Plant response rating, Rice (rice (Oryza saliva) [19]; [27])
100: Plant response rating, Barnyardgrass [11, 27] | Plant response rating, Crabgrass [14, 27] | Plant response rating, Lambsquarters [16, 27] | Plant response rating, Lambsquarters [16, 28] | Plant response rating, Pigweed [18, 27]
40: Ducksalad plant response rating ([22]; Rate 500 g/ha)
0: Plant response rating, Surinam grass [1, 25] | Plant response rating, Surinam grass [1, 26] | Plant response rating, Barnyardgrass [2, 25] | Plant response rating, Barnyardgrass [2, 26] | Plant response rating, Blackgrass [3, 25] | Plant response rating, Blackgrass [3, 26] | Plant response rating, Corn (corn (Zea mays) [4]; [25]) | Plant response rating, Corn (corn (Zea mays) [4]; [26]) | Plant response rating, Foxtail, Giant [5, 25] | Plant response rating, Foxtail, Giant [5, 26] | Plant response rating, Morningglory [6, 26] | Plant response rating, Pigweed [7, 26] | Plant response rating, Velvetleaf [8, 26] | Plant response rating, Wheat [9, 26] | Plant response rating, Surinam grass [10, 28] | Plant response rating, Barnyardgrass [11, 28] | Plant response rating, Cocklebur [12, 27] | Plant response rating, Cocklebur [12, 28] | Plant response rating, Corn (corn (Zea mays) [13]; [28]) | Plant response rating, Crabgrass [14, 28] | Plant response rating, Foxtail, Giant [15, 28] | Plant response rating, Morningglory [17, 27] | Plant response rating, Morningglory [17, 28] | Plant response rating, Rice (rice (Oryza saliva) [19]; [28]) | Plant response rating, Velvetleaf [20, 27] | Plant response rating, Velvetleaf [20, 28] | Barnyardgrass plant response rating ([21]; Rate 250 g/ha) | Plant response rating, Barnyardgrass ([21]; Rate 62 g/ha) | Plant response rating, Barnyardgrass ([21]; Rate 125 g/ha) | Ducksalad plant response rating ([22]; Rate 250 g/ha) | Plant response rating, Ducksalad ([22]; Rate 62 g/ha) | Plant response rating, Ducksalad ([22]; Rate 125 g/ha) | Plant response rating, Rice (rice (Oryza saliva) [23]; Rate 62 g/ha) | Plant response rating (0 to 100), Nightshade (Nightshade; Rate 500 g/ha) | Plant response rating, Sunflower (Sunflower; Rate 250 g/ha)
90: Flatsedge plant response rating ([24]; Rate 500 g/ha)
60: Barnyardgrass plant response rating ([21]; Rate 500 g/ha)
50: Rice plant response rating (rice (Oryza saliva) [23]; Rate 250 g/ha) | Plant response rating, Rice (rice (Oryza saliva) [23]; Rate 125 g/ha)
80: Rice plant response rating (rice (Oryza saliva) [23]; Rate 500 g/ha)
70: Plant response rating, Foxtail, Giant [15, 27] | Plant response rating, Pigweed [18, 28] | Flatsedge plant response rating ([24]; Rate 250 g/ha) | Plant response rating, Flatsedge ([24]; Rate 62 g/ha) | Plant response rating, Flatsedge ([24]; Rate 125 g/ha)
